From ChEMBL document CHEMBL3596102, “Anti-bacterial glycosyl triazoles - Identification of an N-acetylglucosamine derivative with bacteriostatic activity against Bacillus” (2014)
In brackets after ≈: the same amount, converted by molar mass. Activity calls are given as the source filed them. The rule behind the calls is not given here.

Tests used:
Bacillus subtilis [1] = test: Induction of disrupted cell division in Bacillus subtilis ATCC 11775 assessed as phenotype with highly elongated cells and the appearance of chains of cells at 0.8xMIC after 2.5 hrs by phase contrast microscopy; format: functional, organism-based
Bacillus subtilis [2] = test: Inhibition of GlcNAcase in Bacillus subtilis ATCC 11775 assessed as inhibition of nitrophenol release using beta-p-nitrophenyl GlcNAc as substrate after 16 hrs by Spectromax 190 microtitre plate reader
Bacillus subtilis [3] = test: Antibacterial activity against Bacillus subtilis ATCC 11775 assessed as inhibition of bacterial growth after 4 hrs by resazurin microtiter assay; format: functional; details: ATCC 11775, 4 h
Bacillus subtilis [4] = test: Inhibition of GlcNAcase in Bacillus subtilis ATCC 11775 assessed as inhibition of nitrophenol release using beta-p-nitrophenyl GlcNAc as substrate at 250 uM after 16 hrs by Spectromax 190 microtitre plate reader
Bacillus subtilis [5] = test: Bacteriostatic activity against Bacillus subtilis ATCC 11775 assessed as colony count at MIC after 4 hrs by resazurin microtiter assay (reference value: 9.40 +/-2.88x10^7 CFU/ml); format: functional
Bacillus cereus [6] = test: Bacteriostatic activity against Bacillus cereus assessed as colony count at MIC after 4 hrs by resazurin microtiter assay (reference value: 2.67 +/-1.53x10^8 CFU/ml); format: functional
Bacillus cereus [7] = test: Antibacterial activity against Bacillus cereus assessed as inhibition of bacterial growth after 4 hrs by resazurin microtiter assay; format: functional

inhibition (Bacillus subtilis [2])	MIC (Bacillus subtilis [3])	inhibition (Bacillus subtilis [4])	MIC (Bacillus cereus [7])	SMILES	Activity (Bacillus subtilis [1])	Activity (Bacillus subtilis [5])	Activity (Bacillus cereus [6])
Dose-dependent effect	63 µM (≈ 45.8 µg/mL)	Active		CCCCNC(=O)C(C1CCCCC1)N(Cc1cn([C@@H]2O[C@H](CO)[C@@H](O)[C@H](O)[C@H]2NC(C)=O)nn1)C(=O)c1ccccc1I (some centres not stated)	Active	8.5 ×10⁷ CFU/ml	
			60 µM (≈ 39.5 µg/mL)	COc1ccc(C(C(=O)NCc2ccccc2)N(Cc2ccccc2)C(=O)c2cn([C@@H]3O[C@H](CO)[C@@H](O)[C@H](O)[C@H]3NC(C)=O)nn2)cc1 (some centres not stated)			7 ×10⁸ CFU/ml
